Data from US20080114027A1, “Method for treating delirium” (priority 2006, published 2008).

Tests used:
PDE-10 = PDE-10 (Homo sapiens, UniProt Q9Y233); settings: cited from earlier work
rat tail-flick model = experiment: Anti-nociceptive pain testing, rat tail-flick model; type: in vivo, Male Sprague-Dawley (CD) rats; settings: 7.5 mg/kg i.p., magnitude and duration similar to morphine 1.3 mg/kg s.c., FIG. 1
PDE-4 = settings: cited from earlier work
PDE-11 = PDE-11 (Homo sapiens, UniProt Q9HCR9); settings: cited from earlier work
Chain of PDE-11 (Q9HCR9 whole entry): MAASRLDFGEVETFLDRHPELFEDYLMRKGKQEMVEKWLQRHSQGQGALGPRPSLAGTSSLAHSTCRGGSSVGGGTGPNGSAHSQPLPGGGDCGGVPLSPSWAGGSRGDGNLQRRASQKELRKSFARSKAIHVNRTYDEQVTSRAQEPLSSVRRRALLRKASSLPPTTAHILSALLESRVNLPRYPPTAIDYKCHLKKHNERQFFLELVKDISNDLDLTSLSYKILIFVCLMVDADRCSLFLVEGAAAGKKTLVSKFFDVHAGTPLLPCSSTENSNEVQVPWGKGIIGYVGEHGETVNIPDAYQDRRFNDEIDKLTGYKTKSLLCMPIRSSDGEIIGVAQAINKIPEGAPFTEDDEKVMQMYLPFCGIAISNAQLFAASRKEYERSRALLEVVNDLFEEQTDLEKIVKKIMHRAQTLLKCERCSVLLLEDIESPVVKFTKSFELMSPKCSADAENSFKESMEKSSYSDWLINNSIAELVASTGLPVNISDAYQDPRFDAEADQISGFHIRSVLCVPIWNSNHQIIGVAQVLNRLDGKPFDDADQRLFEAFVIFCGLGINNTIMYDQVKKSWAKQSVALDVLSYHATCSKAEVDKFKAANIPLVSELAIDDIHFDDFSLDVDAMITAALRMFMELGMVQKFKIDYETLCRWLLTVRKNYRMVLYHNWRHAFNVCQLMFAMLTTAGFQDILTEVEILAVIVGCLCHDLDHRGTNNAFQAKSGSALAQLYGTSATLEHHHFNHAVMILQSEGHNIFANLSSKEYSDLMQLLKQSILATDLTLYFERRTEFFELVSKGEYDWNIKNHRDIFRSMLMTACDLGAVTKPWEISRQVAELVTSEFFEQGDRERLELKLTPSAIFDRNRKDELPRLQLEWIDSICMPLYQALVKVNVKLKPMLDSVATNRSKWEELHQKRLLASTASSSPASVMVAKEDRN

PDE-3 = settings: cited from earlier work

Chain of PDE-10 (Q9Y233 whole entry): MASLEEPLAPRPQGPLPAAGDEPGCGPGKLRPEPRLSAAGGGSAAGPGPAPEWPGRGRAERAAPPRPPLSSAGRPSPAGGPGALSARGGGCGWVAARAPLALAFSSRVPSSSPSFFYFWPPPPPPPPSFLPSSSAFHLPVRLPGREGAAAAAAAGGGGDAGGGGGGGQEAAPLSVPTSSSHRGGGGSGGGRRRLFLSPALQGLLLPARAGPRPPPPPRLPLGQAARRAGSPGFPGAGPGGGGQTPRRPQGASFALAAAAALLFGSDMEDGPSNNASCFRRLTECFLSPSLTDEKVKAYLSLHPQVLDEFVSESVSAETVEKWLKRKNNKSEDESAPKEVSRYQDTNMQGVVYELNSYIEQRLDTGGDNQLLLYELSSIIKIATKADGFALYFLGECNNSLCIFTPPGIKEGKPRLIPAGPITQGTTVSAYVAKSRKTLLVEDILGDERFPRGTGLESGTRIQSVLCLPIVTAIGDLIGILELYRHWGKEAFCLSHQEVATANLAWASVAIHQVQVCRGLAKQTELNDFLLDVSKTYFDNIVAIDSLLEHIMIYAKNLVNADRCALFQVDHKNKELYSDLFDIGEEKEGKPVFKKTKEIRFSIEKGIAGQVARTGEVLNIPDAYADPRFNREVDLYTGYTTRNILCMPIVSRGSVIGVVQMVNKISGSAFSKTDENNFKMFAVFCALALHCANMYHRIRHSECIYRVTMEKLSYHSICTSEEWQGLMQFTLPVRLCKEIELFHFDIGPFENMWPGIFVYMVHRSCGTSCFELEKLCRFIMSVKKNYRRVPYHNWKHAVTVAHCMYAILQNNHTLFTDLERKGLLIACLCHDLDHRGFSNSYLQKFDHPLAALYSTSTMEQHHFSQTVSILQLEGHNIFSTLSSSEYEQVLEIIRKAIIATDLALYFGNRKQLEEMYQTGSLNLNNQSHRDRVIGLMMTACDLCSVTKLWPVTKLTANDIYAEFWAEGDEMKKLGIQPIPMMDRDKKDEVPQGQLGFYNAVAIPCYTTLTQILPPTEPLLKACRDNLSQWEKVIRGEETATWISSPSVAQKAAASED

CC(C)C(=O)c1c(C(C)C)nn2ccccc12 [ibudilast, 2-methyl-1-(2-(1-methylethyl)pyrazolo(1,5-a)pyridin-3-yl)1-propanone]
PDE inhibitory activity (PDE-10): most active | acute analgesic efficacy (tail-flick latency time) (rat tail-flick model): increased the latency time | PDE inhibitory activity (PDE-4): most active | PDE inhibitory activity (PDE-11): most active | PDE inhibitory activity (PDE-3): most active
